Laboratory results: patent US20260308149A1, “NOVEL CARBOXAMIDE DERIVATIVES” (ANGELINI PHARMA S.P.A., priority 2023, published 2026)

Target: T1, human Kv7.2 (Homo sapiens, UniProt O43526)
T1 construct: expressed in transfected cells
Assay: activation (potentiation) of Kv7.2 current, SyncroPatch 384 electrophysiology in CHO cells stably expressing human Kv7.2
Format: cell-based
Settings: human Kv7.2 in CHO cells; in presence of 5.6 μM zinc pyrithione; % activation relative to 30 μM ML-213
In short: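 CHO cells stably expressing human Kv7.2 were recorded by automated patch clamp, holding at −60 mV with steps to −30, 40 and −90 mV; current was read at the −90 mV step. Compounds were added after 5.6 μM zinc pyrithione pre-activation. % activation was normalised between 30 μM ML-213 (max) and TEA+XE-991 (leak), with EC50 from a logistic fit.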

T1 sequence (O43526 whole entry): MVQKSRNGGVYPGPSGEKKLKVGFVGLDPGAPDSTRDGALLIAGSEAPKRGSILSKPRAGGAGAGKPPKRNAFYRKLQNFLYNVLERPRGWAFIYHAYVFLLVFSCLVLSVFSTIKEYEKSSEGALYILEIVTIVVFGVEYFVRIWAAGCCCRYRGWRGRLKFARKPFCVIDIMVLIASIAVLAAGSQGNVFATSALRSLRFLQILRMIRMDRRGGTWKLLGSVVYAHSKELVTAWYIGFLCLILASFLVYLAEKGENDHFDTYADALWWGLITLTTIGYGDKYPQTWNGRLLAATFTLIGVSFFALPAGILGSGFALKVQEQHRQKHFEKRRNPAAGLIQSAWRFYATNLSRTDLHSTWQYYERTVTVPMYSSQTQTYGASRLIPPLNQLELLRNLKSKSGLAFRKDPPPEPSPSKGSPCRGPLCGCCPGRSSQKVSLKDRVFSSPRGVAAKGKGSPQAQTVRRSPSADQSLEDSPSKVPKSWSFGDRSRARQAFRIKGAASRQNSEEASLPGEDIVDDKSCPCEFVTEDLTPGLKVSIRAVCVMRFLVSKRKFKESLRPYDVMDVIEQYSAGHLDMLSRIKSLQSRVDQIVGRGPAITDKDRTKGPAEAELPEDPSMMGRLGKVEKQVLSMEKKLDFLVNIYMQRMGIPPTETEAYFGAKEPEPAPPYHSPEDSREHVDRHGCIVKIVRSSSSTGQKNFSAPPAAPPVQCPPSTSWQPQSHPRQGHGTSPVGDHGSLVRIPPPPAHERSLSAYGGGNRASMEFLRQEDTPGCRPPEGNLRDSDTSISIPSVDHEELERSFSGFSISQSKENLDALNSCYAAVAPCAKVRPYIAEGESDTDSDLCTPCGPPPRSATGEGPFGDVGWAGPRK

In order of falling EC50:
1. N#Cc1cccc([C@]2(CNC(=O)C3CCC34CCC4)CCO2)c1 (stereo partly drawn) [Example 100, N-[[(2S)-2-(3-cyanophenyl)oxetan-2-yl]methyl]spiro[3.3]heptane-3-carboxamide]  9.76 µM
2. N#Cc1cccc([C@]2(CNC(=O)C3C(F)(F)C34CCC4)CCO2)c1 (stereo partly drawn) [Example 96, N-[[(2S)-2-(3-cyanophenyl)oxetan-2-yl]methyl]-2,2-difluoro-spiro[2.3]hexane-1-carboxamide]  8.54 µM
3. O=C(CC1(C(F)(F)F)CC1)NCC1(c2cccc(OC(F)F)n2)CCO1 (stereo not shown) [Example 132, N-[[2-[6-(difluoromethoxy)-2-pyridyl]oxetan-2-yl]methyl]-2-[1-(trifluoromethyl)cyclopropyl]acetamide]  8.24 µM
4. N#Cc1cccc([C@@]2(CNC(=O)C3CC4CCC3CC4)CCO2)c1 (stereo partly drawn) [Example 98, N-[[(2R)-2-(3-cyanophenyl)oxetan-2-yl]methyl]bicyclo[2.2.2]octane-2-carboxamide]  6.65 µM
5. N#Cc1cccc([C@]2(CNC(=O)C(F)CC3CCCC3)CCO2)c1 (stereo partly drawn) [Example 103, N-[[(2S)-2-(3-cyanophenyl)oxetan-2-yl]methyl]-3-cyclopentyl-2-fluoro-propanamide]  6.14 µM
6. N#Cc1cccc([C@]2(CNC(=O)C(F)C3CC4CCC3C4)CCO2)c1 (stereo partly drawn) [Example 131, N-[[(2S)-2-(3-cyanophenyl)oxetan-2-yl]methyl]-2-fluoro-2-norbornan-2-yl-acetamide]  5.95 µM
7. O=C(NC(CO)C1(c2cccc(Cl)c2)CC1)[C@H]1C[C@@H]1c1ccccc1 (stereo partly drawn) [Example 86, (1S,2S)—N-[1-[1-(3-chlorophenyl)cyclopropyl]-2-hydroxy-ethyl]-2-phenyl-cyclopropanecarboxamide]  5.62 µM
8. N#Cc1cccc([C@@]2(CNC(=O)CC3CCCCCC3)CCO2)c1 [Example 94, N-[[(2R)-2-(3-cyanophenyl)oxetan-2-yl]methyl]-2-cycloheptyl-acetamide]  5.62 µM
9. O=C(NCC1(c2ccnc(OC(F)F)c2)CCO1)C1CC12CCC(F)(F)CC2 (stereo not shown) [Example 118, N-[[2-[2-(difluoromethoxy)-4-pyridyl]oxetan-2-yl]methyl]-6,6-difluoro-spiro[2.5]octane-2-carboxamide]  5.52 µM
10. N#Cc1cccc([C@]2(CNC(=O)CC3CCCCC3)CCO2)c1 [Example 93, N-[[(2S)-2-(3-cyanophenyl)oxetan-2-yl]methyl]-2-cyclohexyl-acetamide]  5.43 µM
11. O=C(CC1CCCCC1)NCC1(c2ccnc(OC(F)F)c2)CCO1 (stereo not shown) [Example 117, 2-cyclohexyl-N-[[2-[2-(difluoromethoxy)-4-pyridyl]oxetan-2-yl]methyl]acetamide]  4.33 µM
12. O=C(NCC1(c2ccnc(OC(F)F)c2)CCO1)[C@H]1C[C@@H]1C(F)(F)F (stereo partly drawn) [Example 129, (1S,2S)—N-[[2-[2-(difluoromethoxy)-4-pyridyl]oxetan-2-yl]methyl]-2-(trifluoromethyl)cyclopropanecarboxamide]  4.24 µM
13. N#Cc1cccc([C@]2(CNC(=O)C3CC34CCOCC4)CCO2)c1 (stereo partly drawn) [Example 106, N-[[(2S)-2-(3-cyanophenyl)oxetan-2-yl]methyl]-6-oxaspiro[2.5]octane-2-carboxamide]  4.08 µM
14. N#Cc1cccc([C@]2(CNC(=O)C3CCC4(CCC4)C3)CCO2)c1 (stereo partly drawn) [Example 102, N-[[(2S)-2-(3-cyanophenyl)oxetan-2-yl]methyl]spiro[3.4]octane-7-carboxamide]  3.01 µM
15. O=C(NCC1(c2cccc(OC(F)F)n2)CCO1)C1CC12CCOCC2 (stereo not shown) [Example 115, N-[[2-[6-(difluoromethoxy)-2-pyridyl]oxetan-2-yl]methyl]-6-oxaspiro[2.5]octane-2-carboxamide]  2.82 µM
16. N#Cc1cccc(C2(CNC(=O)CC3CCCCC3)COC2)c1 [Example 89, N-[[3-(3-cyanophenyl)oxetan-3-yl]methyl]-2-cyclohexyl-acetamide]  2.79 µM
17. N#Cc1cccc([C@]2(CNC(=O)[C@H]3C[C@@H]3C(F)(F)F)CCO2)c1 [Example 95, (1S,2S)—N-[[(2S)-2-(3-cyanophenyl)oxetan-2-yl]methyl]-2-(trifluoromethyl)cyclopropanecarboxamide]  2.55 µM
18. CCc1cc(C2(CNC(=O)[C@H]3C[C@@H]3c3ccccc3)CCO2)ccn1 (stereo partly drawn) [Example 121, (1S,2S)—N-[[2-(2-ethyl-4-pyridyl)oxetan-2-yl]methyl]-2-phenyl-cyclopropanecarboxamide]  2.51 µM
19. N#Cc1cc(C2(CNC(=O)[C@H]3C[C@@H]3c3ccccc3)CCO2)ccc1F (stereo partly drawn) [Example 125, (1S,2S)—N-[[2-(3-cyano-4-fluoro-phenyl)oxetan-2-yl]methyl]-2-phenyl-cyclopropanecarboxamide]  2.19 µM
20. N#Cc1cccc([C@]2(CNC(=O)CC3(O)CC4CCC3C4)CCO2)c1 (stereo partly drawn) [Example 111, N-[[(2S)-2-(3-cyanophenyl)oxetan-2-yl]methyl]-2-(2-hydroxynorbornan-2-yl)acetamide]  2.01 µM
21. O=C(NCC(CCO)c1cccc(Cl)c1)[C@H]1C[C@@H]1c1ccccc1 (stereo partly drawn) [Example 92, (1S,2S)—N-[2-(3-chlorophenyl)-4-hydroxy-butyl]-2-phenyl-cyclopropanecarboxamide]  1.81 µM
22. N#Cc1cccc([C@@]2(CNC(=O)CC3CC4CCC3C4)CCO2)c1 (stereo partly drawn) [Example 97, N-[[(2R)-2-(3-cyanophenyl)oxetan-2-yl]methyl]-2-norboman-2-yl-acetamide]  1.28 µM
23. N#Cc1cccc(C2(CNC(=O)[C@H]3C[C@@H]3c3ccccc3)COC2)c1 [Example 85, (1S,2S)—N-[[3-(3-cyanophenyl)oxetan-3-yl]methyl]-2-phenyl-cyclopropanecarboxamide]  1.14 µM
24. N#Cc1cccc(C2(CNC(=O)CC3CCCCC3)OCC2(F)F)c1 (stereo not shown) [Example 91, N-[[2-(3-cyanophenyl)-3,3-difluoro-oxetan-2-yl]methyl]-2-cyclohexyl-acetamide]  1.12 µM
25. N#Cc1cccc(C2(CNC(=O)CC3CCCCC3)CCC(=O)O2)c1 (stereo not shown) [Example 90, N-[[2-(3-cyanophenyl)-5-oxo-tetrahydrofuran-2-yl]methyl]-2-cyclohexyl-acetamide]  0.96 µM
26. N#Cc1cccc([C@]2(CNC(=O)C3CC4(C3)CC43CCC3)CCO2)c1 (stereo partly drawn) [Example 105, N-[[(2S)-2-(3-cyanophenyl)oxetan-2-yl]methyl]dispiro[3.0.3^5.1^4]nonane-7-carboxamide]  0.91 µM
27. N#Cc1cccc([C@]2(CNC(=O)CC34CCC(CC3)C4)CCO2)c1 [Example 109, N-[[(2S)-2-(3-cyanophenyl)oxetan-2-yl]methyl]-2-norbornan-1-yl-acetamide]  0.71 µM
28. O=C(NCC1(c2cccc(OC(F)F)n2)CCO1)[C@H]1C[C@@H]1C(F)(F)F (stereo partly drawn) [Example 130, (1S,2S)—N-[[2-[6-(difluoromethoxy)-2-pyridyl]oxetan-2-yl]methyl]-2-(trifluoromethyl)cyclopropanecarboxamide]  0.68 µM
29. O=C(CC1CCCCC1)NCC1(c2cccc(OC(F)F)n2)CCO1 (stereo not shown) [Example 119, 2-cyclohexyl-N-[[2-[6-(difluoromethoxy)-2-pyridyl]oxetan-2-yl]methyl]acetamide]  0.66 µM
30. N#Cc1cccc([C@]2(CNC(=O)CC3CC4(CCC4)C3)CCO2)c1 [Example 116, N-[[(2S)-2-(3-cyanophenyl)oxetan-2-yl]methyl]-2-spiro[3.3]heptan-2-yl-acetamide]  0.61 µM
31. N#Cc1cccc([C@]2(CNC(=O)C3CCCC34CCC4)CCO2)c1 (stereo partly drawn) [Example 104, N-[[(2S)-2-(3-cyanophenyl)oxetan-2-yl]methyl]spiro[3.4]octane-8-carboxamide]  0.51 µM
32. N#Cc1cccc([C@]2(CNC(=O)[C@H]3C[C@@H]3c3ccc(Br)cc3)CCO2)c1 [Example 128, (1S,2S)-2-(4-bromophenyl)-N-[[(2S)-2-(3-cyanophenyl)oxetan-2-yl]methyl]cyclopropanecarboxamide]  0.47 µM
33. N#Cc1cccc([C@]2(CNC(=O)CC3CC4CCC3C4)CCO2)c1 (stereo partly drawn) [Example 108, N-[[(2S)-2-(3-cyanophenyl)oxetan-2-yl]methyl]-2-norbornan-2-yl-acetamide]  0.41 µM
34. O=C(NCC1(c2cccc(OC(F)F)n2)CCO1)C1CC12CCC(F)(F)CC2 (stereo not shown) [Example 120, N-[[2-[6-(difluoromethoxy)-2-pyridyl]oxetan-2-yl]methyl]-6,6-difluoro-spiro[2.5]octane-2-carboxamide]  0.26 µM
35. O=C(NCC1(c2cccc(OC(F)F)n2)CCO1)[C@H]1C[C@@H]1c1ccccc1 (stereo partly drawn) [Example 99, (1S,2S)—N-[[2-[6-(difluoromethoxy)-2-pyridyl]oxetan-2-yl]methyl]-2-phenyl-cyclopropanecarboxamide]  0.23 µM
36. N#Cc1cccc(C2(CNC(=O)[C@H]3C[C@@H]3c3ccccc3)CCC(=O)O2)c1 (stereo partly drawn) [Example 88, (1S,2S)—N-[[2-(3-cyanophenyl)-5-oxo-tetrahydrofuran-2-yl]methyl]-2-phenyl-cyclopropanecarboxamide]  0.2 µM
37. O=C(NCC1(c2cccc(OC(F)F)n2)CCO1)C1CC12CCCCC2 (stereo not shown) [Example 123, N-[[2-[6-(difluoromethoxy)-2-pyridyl]oxetan-2-yl]methyl]spiro[2.5]octane-2-carboxamide]  0.17 µM
38. CO[C@@](C)(CNC(=O)C1CC12CCOCC2)c1cccc(Cl)c1 (stereo partly drawn) [Example 84, N-[(2R)-2-(3-chlorophenyl)-2-methoxy-propyl]-6-oxaspiro[2.5]octane-2-carboxamide]  0.13 µM
39. N#Cc1cccc([C@]2(CNC(=O)[C@H]3C[C@@H]3C3CCCC3)CCO2)c1 [Example 112, (1S,2R)—N-[[(2S)-2-(3-cyanophenyl)oxetan-2-yl]methyl]-2-cyclopentyl-cyclopropanecarboxamide]  0.09 µM
40. N#Cc1cccc(C2(CNC(=O)[C@H]3C[C@@H]3c3ccccc3)OCC2(F)F)c1 (stereo partly drawn) [Example 87, (1S,2S)—N-[[2-(3-cyanophenyl)-3,3-difluoro-oxetan-2-yl]methyl]-2-phenyl-cyclopropanecarboxamide]  0.06 µM
